Measured values as given in patent US12558317B2, “Compositions and methods for treating disorders ameliorated by muscarinic receptor activation” (Karuna Therapeutics, Inc., priority 2018, dated 2026).
Values belong to the compound of their own block, whether it stands above or below them.

Legend:
[1] = test system: normal healthy volunteers; test: KAR-001 Phase I study: safety and tolerability, cholinergic adverse events; type: in vivo, human
[2] = KAR-001 Phase I study: xanomeline pharmacokinetics; details: human, in vivo, 225 mg daily; for AUC / Cmax: oral, geometric mean; for AUC: Xanomeline AUC0-tau; for Cmax: Xanomeline Cmax
Experimental: A Phase I, double-blind, randomized multiple-dose pilot study was conducted with xanomeline administered alone compared to xanomeline administered with trospium chloride in normal healthy volunteers. […]

[3] = 26-week study of Alzheimer's disease; cited from earlier work
[4] = KAR-001 Safety Population, cholinergic TEAE, number of individual occurrences
[5] = KAR-001 Safety Population, cholinergic TEAE, number of subjects
[6] = KAR-001 Safety Population, cholinergic TEAE, percentage of subjects in arm

SMILES: CCCCCCOc1nsnc1-c1ccc[n+](C)c1 [Compound V]
- mutagenic potential (Mutagenic potential): negative

- Tmax ([2]; KAR-001 Day 3, median): 2 h
- AUC ([2]; KAR-001 Day 3): 12.6 ng·h/mL
- AUC ([2]; KAR-001 Day 9): 24.8 ng·h/mL
- Cmax ([2]; KAR-001 Day 3): 2.95 ng/mL
- Cmax ([2]; KAR-001 Day 9): 4.57 ng/mL
SMILES: CCCCCCOc1nsnc1C1=CCCN(C)C1 [xanomeline]
- AE leading to discontinuation (D/C), # events ([1]; KAR-001): 2
- AE leading to discontinuation (D/C), % ([1]; KAR-001): 6.1%
- Any SAE, % ([1]; KAR-001): (0.0) %
- Any clinically significant TEAE, # events ([1]; KAR-001): 5
- Any clinically significant TEAE, % ([1]; KAR-001): 15.2%
- Any study drug-related TEAE, # events ([1]; KAR-001): 92
- Any study drug-related TEAE, % ([1]; KAR-001): 69.7%
- Diarrhea, # of events ([1]; KAR-001): 8
- Diarrhea, % of subjects ([1]; KAR-001): 21.2%
- Diarrhea, n subjects ([1]; KAR-001): 7
- Max Severity of TEAE: Mild, % ([1]; KAR-001): (66.7) N/A %
- Max Severity of TEAE: Moderate, % ([1]; KAR-001): (15.2) N/A %
- Max Severity of TEAE: Severe, % ([1]; KAR-001): (0.0) %
- Max severity of study drug-related TEAE: Mild, % ([1]; KAR-001): (57/6) N/A
- Max severity of study drug-related TEAE: Moderate, % ([1]; KAR-001): (12.1) N/A %
- Max severity of study drug-related TEAE: Severe, % ([1]; KAR-001): (0.0) N/A %
- Nausea, # of events ([1]; KAR-001): 11
- Nausea, % of subjects ([1]; KAR-001): 24.2%
- Nausea, n subjects ([1]; KAR-001): 8
- Salivation (salivary hypersecretion), % of subjects ([1]; KAR-001): 36.4%
- Salivation, # of events ([1]; KAR-001): 16
- Salivation, n subjects ([1]; KAR-001): 12
- Study drug related AE leading to D/C, # events ([1]; KAR-001): 1
- Study drug related AE leading to D/C, % ([1]; KAR-001): 3.0%
- Subjects with any TEAE, # events ([1]; KAR-001): 108
- Subjects with any TEAE, % ([1]; KAR-001): 81.8%
- Sweating (hyperhidrosis), % of subjects ([1]; KAR-001): 48.5%
- Sweating, # of events ([1]; KAR-001): 24
- Sweating, n subjects ([1]; KAR-001): 16
- Vomiting, # of events ([1]; KAR-001): 5
- Vomiting, % of subjects ([1]; KAR-001): 15.2%
- Vomiting, n subjects ([1]; KAR-001): 5
- Cholinergic adverse events: Any TEAEs, # of events ([1]; KAR-001, healthy volunteers): 64
- Cholinergic adverse events: Any TEAEs, n subjects ([1]; KAR-001, healthy volunteers): 21
- Cholinergic adverse events: Any TEAEs, % of subjects ([1]; KAR-001, healthy volunteers, listed as Xanomeline + placebo): 63.6%
- Cholinergic adverse events: Any TEAEs, % of subjects ([1]; KAR-001, healthy volunteers, listed as xanomeline+placebo): 63%
- Diarrhea, # occurrences [1, 4]: 8
- Gastrointestinal disorders, # occurrences [1, 4]: 40
- Hyperhidrosis, # occurrences [1, 4]: 24
- Nausea, # occurrences [1, 4]: 11
- Salivary hypersecretion, # occurrences [1, 4]: 16
- Skin and subcutaneous tissue disorders, # occurrences [1, 4]: 24
- Vomiting, # occurrences [1, 4]: 5
- Diarrhea, n subjects [1, 5]: 7
- Gastrointestinal disorders, n subjects [1, 5]: 18
- Hyperhidrosis, n subjects [1, 5]: 16
- Nausea, n subjects [1, 5]: 8
- Salivary hypersecretion, n subjects [1, 5]: 12
- Skin and subcutaneous tissue disorders, n subjects [1, 5]: 16
- Vomiting, n subjects [1, 5]: 5
- Diarrhea, % of subjects [1, 6]: 20.6%
- Gastrointestinal disorders, % of subjects [1, 6]: 52.9%
- Hyperhidrosis, % of subjects [1, 6]: 47.1%
- Nausea, % of subjects [1, 6]: 23.5%
- Salivary hypersecretion, % of subjects [1, 6]: 35.3%
- Skin and subcutaneous tissue disorders, % of subjects [1, 6]: 47.1%
- Vomiting, % of subjects [1, 6]: 14.7%
- Subjects with any TEAEs (cholinergic), # occurrences ([1]; KAR-001 Safety Population, number of individual occurrences): 64
- Subjects with any TEAEs (cholinergic), n subjects ([1]; KAR-001 Safety Population, number of subjects): 21
- Subjects with any TEAEs (cholinergic), % of subjects ([1]; KAR-001 Safety Population, percentage of subjects in arm): 61.8%
- dropout rate [3]: 56%
